Assays:
Format in all cases: biochemical
Syk = biological target: T1, Syk (Homo sapiens, UniProt P43405); assay: Syk enzyme assay (flash plate / Caliper mobility shift)
T1 construct: purchased BPS Bioscience, CA, USA
Experimental: The kinase assay is performed either as 384-well Flashplate assay (for e.g. Topcount measurement) or as 384-well Image-Flashplate assay (for LEADseeker measurement).
2.5 nM SYK, 400 nM Biotin-Aha-Aha-[…] and 10 μM ATP (spiked with 0.3 μCi 33P-ATP/well) are incubated in a total volume of 50 μl (60 mM Hepes, 10 mM MgCl2, 1.2 mM Dithiothreitol, 0.02% Brij35, 0.1% BSA, pH 7.5) with or without test compound for 1 hours at 30° C. The reaction is stopped with 25 μl 200 mM EDTA. After 30 Min at 30° C. the liquid is removed and each well washed thrice with 100 μl 0.9% sodium chloride solution. Non-specific reaction is determined in presence of 0.1 μM Staurosporine. Radioactivity is measured with Topcount (when using Flashplates) or with LEADseeker (when using Image-Flashplates) respectively. Results (e.g. IC50-values) are calculated with program tools provided by the IT-department (e.g. Symyx Assay Explorer, Genedata Screener).
(§1) Enzymatic Assays Using the Caliper LifeSciences Technology
(§2) The assays described here are performed on the Caliper Life Sciences LC3000 system This technology provides data on enzyme activity via measurement of the relative amounts of phosphorylated or unphosphorylated fluorescently labelled substrate peptide at the end of an enzymatic reaction. These different states of peptide are resolved by applying a potential difference across the sample. The presence of the charged phosphate group on the product (as opposed to the substrate) causes a different peptide mobility between the two peptides. This is visualized by excitation of the fluorescent label on the substrate and product peptides and represented as peaks within the analysis software.
(§3) In order to measure inhibitor activity of kinase inhibitors on this technology, a TTP Mosquito liquid handling instrument is used to place 0.25 ul of the appropriate concentration of inhibitor in 100% DMSO (for a dose response curve calculation) into each well of a 384-well plate. To this reaction components are added to a final volume of 25 ul. The table below indicates the sequences and concentrations for the assays described in this report. Standard components are 1 mM DTT (Sigma, D0632), 1 mM MgCl2 (Sigma, M1028), 100 mM HEPES pH 7.5 (Calbiochem, 391338), 0.015% Brij-35 (Sigma, B4184).
(§4) The reaction is incubated for 90 min at 25 C, and then stopped by the addition of 70 ul of Stop buffer (100 mM HEPES pH 7.5, 0.015% Brij-35, 10 mM EDTA (Sigma, E7889)).
(§5) The plate is read on a Caliper LC 3000 in an Off-Chip mobility shift assay format, on a 12-sipper chip. Unphosphorylated substrate and phosphorylated product peptide resolve as separate peaks allowing direct measurement of percentage of conversion of substrate to product. The percent conversion can be plotted against concentration of inhibitor to produce a sigmoidal dose response curve, from which an IC50 can be calculated using GeneData Condoseo or a similar product. Cellular activity assays

ZAP-70 = biological target: T2, ZAP-70 (Homo sapiens, UniProt P43403); assay: Zap70 enzymatic assay (Caliper LifeSciences technology)
T2 construct: purchased BPS Bioscience, CA, USA
T2 sequence (P43403 1-619): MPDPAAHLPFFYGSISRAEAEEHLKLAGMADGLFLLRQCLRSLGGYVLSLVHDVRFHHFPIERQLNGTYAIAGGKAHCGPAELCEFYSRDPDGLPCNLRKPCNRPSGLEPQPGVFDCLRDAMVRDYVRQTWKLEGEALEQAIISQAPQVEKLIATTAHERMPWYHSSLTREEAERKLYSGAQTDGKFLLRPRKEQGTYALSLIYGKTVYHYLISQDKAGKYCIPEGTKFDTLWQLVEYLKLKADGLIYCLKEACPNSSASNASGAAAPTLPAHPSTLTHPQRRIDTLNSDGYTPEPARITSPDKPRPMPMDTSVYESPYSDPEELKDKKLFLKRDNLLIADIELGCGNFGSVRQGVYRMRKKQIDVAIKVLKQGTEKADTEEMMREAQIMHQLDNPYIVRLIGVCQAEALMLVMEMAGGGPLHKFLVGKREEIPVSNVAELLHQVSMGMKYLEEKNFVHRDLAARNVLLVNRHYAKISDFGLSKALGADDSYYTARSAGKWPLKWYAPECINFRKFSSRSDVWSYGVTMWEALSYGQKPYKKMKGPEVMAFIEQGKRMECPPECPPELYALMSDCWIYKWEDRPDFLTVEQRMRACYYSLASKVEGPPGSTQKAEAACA
Experimental: as §1, §2, §3, §4, §5

KDR = biological target: T3, KDR (Homo sapiens, UniProt P35968); assay: KDR enzymatic assay (Caliper LifeSciences technology)
T3 construct: purchased BPS Bioscience, CA, USA
Experimental: as §1, §2, §3, §4, §5

T3 sequence (P35968 20-1356): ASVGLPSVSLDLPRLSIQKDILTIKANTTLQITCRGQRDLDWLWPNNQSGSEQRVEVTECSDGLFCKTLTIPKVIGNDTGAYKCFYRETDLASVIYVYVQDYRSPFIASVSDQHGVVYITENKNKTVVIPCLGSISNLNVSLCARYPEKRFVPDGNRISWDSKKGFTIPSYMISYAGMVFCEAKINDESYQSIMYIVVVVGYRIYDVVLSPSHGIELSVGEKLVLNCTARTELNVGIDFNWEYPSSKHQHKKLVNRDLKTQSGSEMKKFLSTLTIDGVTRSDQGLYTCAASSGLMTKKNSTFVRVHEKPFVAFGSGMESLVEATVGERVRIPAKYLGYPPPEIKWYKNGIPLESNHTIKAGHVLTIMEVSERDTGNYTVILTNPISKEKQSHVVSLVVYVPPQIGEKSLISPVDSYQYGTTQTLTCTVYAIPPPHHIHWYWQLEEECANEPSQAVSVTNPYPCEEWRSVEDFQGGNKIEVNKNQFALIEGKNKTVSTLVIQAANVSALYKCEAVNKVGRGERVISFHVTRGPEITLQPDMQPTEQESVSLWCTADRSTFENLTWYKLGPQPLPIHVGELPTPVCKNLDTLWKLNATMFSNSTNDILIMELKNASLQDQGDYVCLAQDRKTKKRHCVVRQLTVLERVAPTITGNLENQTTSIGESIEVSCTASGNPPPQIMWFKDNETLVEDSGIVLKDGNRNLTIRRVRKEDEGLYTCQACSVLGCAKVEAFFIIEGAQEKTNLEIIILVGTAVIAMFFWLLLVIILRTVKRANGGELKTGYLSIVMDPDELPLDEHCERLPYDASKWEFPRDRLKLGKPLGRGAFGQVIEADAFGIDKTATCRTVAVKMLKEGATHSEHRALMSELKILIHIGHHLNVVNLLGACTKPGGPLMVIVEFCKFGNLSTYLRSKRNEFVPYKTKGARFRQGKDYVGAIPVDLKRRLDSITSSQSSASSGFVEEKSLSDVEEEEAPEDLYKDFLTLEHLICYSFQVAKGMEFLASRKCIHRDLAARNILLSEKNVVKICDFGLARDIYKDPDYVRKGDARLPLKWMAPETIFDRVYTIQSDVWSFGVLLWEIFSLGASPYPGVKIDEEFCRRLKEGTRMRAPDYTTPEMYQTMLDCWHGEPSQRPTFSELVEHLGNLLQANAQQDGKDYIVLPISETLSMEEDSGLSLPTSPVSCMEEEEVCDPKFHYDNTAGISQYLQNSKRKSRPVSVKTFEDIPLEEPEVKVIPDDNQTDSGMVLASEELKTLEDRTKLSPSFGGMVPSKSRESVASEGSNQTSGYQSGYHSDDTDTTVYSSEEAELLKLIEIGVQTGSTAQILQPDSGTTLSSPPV

Row | Compound | IC50 (Syk) | IC50 (ZAP-70) | IC50 (KDR)
1 | Clc1nccn2nc(Nc3ccccc3)nc12 [Example B5, 8-Chloro-[1,2,4]triazolo[1,5-a]pyrazin-2-yl-phenyl-amine] | 3 to 50 µM | 3 to 50 µM | 
2 | Cc1cccc(Nc2nc3c(-c4ccccc4)nccn3n2)c1 [Example C1, (8-Phenyl-[1,2,4]triazolo[1,5-a]pyrazin-2-yl)-m-tolyl-amine] | 0.3 to 3 µM | 3 to 50 µM | < 0.3 µM
3 | Cc1cc(C)cc(Nc2nccn3nc(Nc4ccc(Sc5nccn5C)c(Cl)c4)nc23)c1 [Example C77, N^2-[3-Chloro-4-(1-methyl-1H-imidazol-2-ylsulfanyl)-phenyl]-N^8-(3,5-dimethyl-phenyl)-[1,2,4]triazolo[1,5-a]pyrazine-2,8-diamine] | 3 to 50 µM | 3 to 50 µM | 
4 | CN(C)CCCNc1nccn2nc(Nc3ccccc3)nc12 [Example C50, N^8-(3-Dimethylamino-propyl)-N^2-phenyl-[1,2,4]triazolo[1,5-a]pyrazine-2,8-diamine] | 3 to 50 µM | 3 to 50 µM | 3 to 50 µM
5 | Cc1cccc(Nc2nc3c(-c4cccnc4)nccn3n2)c1 [Example C21, (8-Pyridin-3-yl-[1,2,4]triazolo[1,5-a]pyrazin-2-yl)-m-tolyl-amine] | 0.3 to 3 µM | 3 to 50 µM | 0.3 to 3 µM
6 | c1ccc(Nc2nc3c(NCCCN4CCOCC4)nccn3n2)cc1 [Example C51, N^8-(3-Morpholin-4-yl-propyl)-N^2-phenyl-[1,2,4]triazolo[1,5-a]pyrazine-2,8-diamine] |  | 0.3 to 3 µM | 3 to 50 µM
7 | COCCCNc1nccn2nc(Nc3cccc(C(F)(F)F)c3)nc12 [Example C44, N^8-(3-Methoxy-propyl)-N^2-(3-trifluoromethyl-phenyl)-[1,2,4]triazolo[1,5-a]pyrazine-2,8-diamine] | 3 to 50 µM | 3 to 50 µM | 
8 | O=C1Cc2cc(Nc3nc4c(-c5cnc6ccccc6c5)nccn4n3)ccc2N1 [Example C263, 5-(8-Quinolin-3-yl-[1,2,4]triazolo[1,5-a]pyrazin-2-ylamino)-1,3-dihydro-indol-2-one] | 3 to 50 µM | 3 to 50 µM | 
9 | Cc1cccc(Nc2nccn3nc(Nc4ccc(Sc5nccn5C)c(Cl)c4)nc23)c1 [Example C79, N^2-[3-Chloro-4-(1-methyl-1H-imidazol-2-ylsulfanyl)-phenyl]-N^8-m-tolyl-[1,2,4]triazolo[1,5-a]pyrazine-2,8-diamine] | 3 to 50 µM | 0.3 to 3 µM | 
10 | CN1CCN(CCCNc2nccn3nc(Nc4ccccc4)nc23)CC1 [Example C52, N^8-[3-(4-Methyl-piperazin-1-yl)-propyl]-N^2-phenyl-[1,2,4]triazolo[1,5-a]pyrazine-2,8-diamine] |  | 3 to 50 µM | 3 to 50 µM
11 | NCCNc1nccn2nc(Nc3cccc(C(F)(F)F)c3)nc12 [Example C41, N^8-(2-Amino-ethyl)-N^2-(3-trifluoromethyl-phenyl)-[1,2,4]triazolo[1,5-a]pyrazine-2,8-diamine] | 3 to 50 µM | 3 to 50 µM | 3 to 50 µM
12 | CN1CCN(CCCNc2nccn3nc(Nc4cccc(C(F)(F)F)c4)nc23)CC1 [Example C43, N^843-(4-Methyl-piperazin-1-yl)-propyq-N^2-(3-trifluoromethyl-phenyl)-[1,2,4]triazolo[1,5-a]pyrazine-2,8-diamine] |  | 3 to 50 µM | 3 to 50 µM
13 | Cc1cc(C)cc(Nc2nccn3nc(Nc4cccc(C(F)(F)F)c4)nc23)c1 [Example C86, N^8-(3,5-Dimethyl-phenyl)-N^2-(3-trifluoromethyl-phenyl)-[1,2,4]triazolo[1,5-a]pyrazine-2,8-diamine] |  | 3 to 50 µM | 
14 | Cn1ccnc1Sc1ccc(Nc2nc3c(Cl)nccn3n2)cc1Cl [Example B6, [3-Chloro-4-(1-methyl-1H-imidazol-2-ylsulfanyl)-phenyl]-(8-chloro-[1,2,4]triazolo[1,5-a]pyrazin-2-yl)-amine] | 3 to 50 µM | 3 to 50 µM | 
15 | FC(F)(F)c1cccc(Nc2nccn3nc(Nc4ccccc4)nc23)c1 [Example C76, N^2-Phenyl-N^8-(3-trifluoromethyl-phenyl)-[1,2,4]triazolo[1,5-a]pyrazine-2,8-diamine] | 3 to 50 µM | 3 to 50 µM | 
16 | FC(F)(F)c1cccc(Nc2nc3c(Nc4ccccc4)nccn3n2)c1 [Example C88, N^8-Phenyl-N^2-(3-trifluoromethyl-phenyl)-[1,2,4]triazolo[1,5-a]pyrazine-2,8-diamine] |  | 3 to 50 µM | 

More lines, now with the values ahead:

Row | IC50 (Syk) | IC50 (ZAP-70) | IC50 (KDR) | Compound
17 | 3 to 50 µM | 3 to 50 µM |  | Cc1cc(C)cc(Nc2nccn3nc(Nc4ccc5cnn(Cc6ccccc6)c5c4)nc23)c1 [Example C81, N^2-(1-Benzyl-1H-indazol-6-yl)-N^8-(3,5-dimethyl-phenyl)-[1,2,4]triazolo[1,5-a]pyrazine-2,8-diamine]
18 | 3 to 50 µM | 3 to 50 µM |  | COc1cc(Nc2nccn3nc(Nc4ccc(Sc5nccn5C)c(Cl)c4)nc23)cc(OC)c1 [Example C78, N^2-[3-Chloro-4-(1-methyl-1H-imidazol-2-ylsulfanyl)-phenyl]-N^8-(3,5-dimethoxy-phenyl)-[1,2,4]triazolo[1,5-a]pyrazine-2,8-diamine]
19 | 3 to 50 µM | 0.3 to 3 µM |  | Cn1ccnc1Sc1ccc(Nc2nc3c(Nc4ccccc4)nccn3n2)cc1Cl [Example C80, N^2-[3-Chloro-4-(1-methyl-1H-imidazol-2-ylsulfanyl)-phenyl]-N^8-phenyl-[1,2,4]triazolo[1,5-a]pyrazine-2,8-diamine]
20 | 0.3 to 3 µM | 3 to 50 µM |  | c1ccc(Cn2ncc3ccc(Nc4nc5c(-c6cccnc6)nccn5n4)cc32)cc1 [Example C27, (1-Benzyl-1H-indazol-6-yl)-(8-pyridin-3-yl-[1,2,4]triazolo[1,5-a]pyrazin-2-yl)-amine]
21 | 3 to 50 µM | 3 to 50 µM | 3 to 50 µM | COc1cc(OC)cc(-c2nccn3nc(Nc4ccc(Sc5nccn5C)c(Cl)c4)nc23)c1 [Example C25, [3-Chloro-4-(1-methyl-1H-imidazol-2-ylsulfanyl)-phenyl]-[8-(3,5-dimethoxy-phenyl)-[1,2,4]triazolo[1,5-a]pyrazin-2-yl]-amine]
22 |  | 3 to 50 µM |  | COc1cc(Nc2nccn3nc(Nc4cccc(C(F)(F)F)c4)nc23)cc(OC)c1 [Example C87, N^8-(3,5-Dimethoxy-phenyl)-N^2-(3-trifluoromethyl-phenyl)-[1,2,4]triazolo[1,5-a]pyrazine-2,8-diamine]
23 |  | 3 to 50 µM |  | COc1cc(Nc2nccn3nc(Nc4ccc5cnn(Cc6ccccc6)c5c4)nc23)cc(OC)c1 [Example C82, N^2-(1-Benzyl-1H-indazol-6-yl)-N^8-(3,5-dimethoxy-phenyl)-[1,2,4]triazolo[1,5-a]pyrazine-2,8-diamine]
24 | 0.3 to 3 µM | 0.3 to 3 µM |  | COc1cc(OC)cc(-c2nccn3nc(Nc4ccc5cnn(Cc6ccccc6)c5c4)nc23)c1 [Example C26, (1-Benzyl-1H-indazol-6-yl)-[8-(3,5-dimethoxy-phenyl)-[1,2,4]triazolo[1,5-a]pyrazin-2-yl]-amine]
25 | < 0.3 µM | 3 to 50 µM |  | COc1cc(OC)cc(-c2nccn3nc(Nc4ccccc4)nc23)c1 [Example C18, [8-(3,5-Dimethoxy-phenyl)-[1,2,4]triazolo[1,5-a]pyrazin-2-yl]-phenyl-amine]

— US9023851B2 (Merck Patent GmbH, priority 2010, dated 2015)
